Measured values taken from the supplement of paper PMC10307832.

Columns and labels:
Experiment in all cases: relative viability (nuclei count vs DMSO), 5 days (fraction); higher = more cells survive
[1] = compound: C1=CC=C2C(=C1)N=C(S2)C(C#N)C3=NC(=NC=C3)NCCC4=CN=CC=C4 + Cc1cc(Nc2cc(N3CCN(C)CC3)nc(Sc3ccc(NC(=O)C4CC4)cc3)n2)n[nH]1 [Tozasertib] (partner 0.1 µM)
How it was run: (§1)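 Medians of duplicate plates are given as relative viability. That measure is the nuclei count in treated wells divided by the count in vehicle wells. Counts were taken on 4× images of lung cancer cell lines in 1536-well plates, 5 days after pin-tool dosing the day after seeding with one drug alone or a fixed anchor-drug dose plus five library-drug doses (not always all listed) in √10 steps.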

[2] = compound: C1=CC=C2C(=C1)N=C(S2)C(C#N)C3=NC(=NC=C3)NCCC4=CN=CC=C4 + Nc1ncn([C@H]2C[C@H](O)[C@@H](CO)O2)c(=O)n1 [Decitabine] (partner 2 µM)
How it was run: as §1

[3] = compound: COc1cc(N2CCC(N3CCN(C)CC3)CC2)ccc1Nc1ncc(Cl)c(Nc2ccccc2S(=O)(=O)C(C)C)n1 [NVP-TAE684] + Nc1ncn([C@H]2C[C@H](O)[C@@H](CO)O2)c(=O)n1 [Decitabine] (partner 2 µM)
How it was run: as §1

[4] = compound: COc1cc2/c(=N/c3ccc(Br)cc3F)nc[nH]c2cc1OCC1CCN(C)CC1 [Vandetanib] + CC(=O)Nc1cccc(-n2c(=O)n(C3CC3)c(=O)c3c(Nc4ccc(I)cc4F)n(C)c(=O)c(C)c32)c1 [Trametinib] (partner 0.02 µM)
How it was run: as §1

Row | Cell Line | relative viability ([1]; first compound 0.005 µM) | relative viability ([1]; first compound 0.01581 µM) | relative viability ([1]; first compound 0.05 µM) | relative viability ([1]; first compound 0.1581 µM) | relative viability ([1]; first compound 0.5 µM) | relative viability ([2]; first compound 0.005 µM) | relative viability ([2]; first compound 0.01581 µM) | relative viability ([2]; first compound 0.05 µM) | relative viability ([2]; first compound 0.1581 µM) | relative viability ([2]; first compound 0.5 µM) | relative viability ([3]; first compound 0.2 µM) | relative viability ([3]; first compound 0.6325 µM) | relative viability ([3]; first compound 2 µM) | relative viability ([4]; first compound 0.02 µM) | relative viability ([4]; first compound 0.06325 µM) | relative viability ([4]; first compound 0.2 µM) | relative viability ([4]; first compound 0.6325 µM) | relative viability ([4]; first compound 2 µM)
1 | LC-2-ad | 0.358 | 0.433 | 0.405 | 0.449 | 0.437 | 0.698 | 0.819 | 0.818 | 0.827 | 0.726 | 0.754 | 0.78 | 0.606 | 0.899 | 0.858 | 0.939 | 0.861 | 0.662
2 | NCI-H2023 | 0.288 | 0.386 | 0.251 | 0.275 | 0.136 | 0.245 | 0.236 | 0.209 | 0.245 | 0.243 | 0.238 | 0.199 | 0.0999 | 0.498 | 0.507 |  | 0.556 | 0.49
3 | SK-LU-1 | 0.293 | 0.344 | 0.33 | 0.309 | 0.299 | 0.496 | 0.762 | 0.68 | 0.727 | 0.558 | 0.58 | 0.658 | 0.602 | 0.453 | 0.344 | 0.562 | 0.567 | 0.458
4 | LCLC-97TM1 | 0.294 | 0.214 | 0.273 | 0.256 | 0.281 | 0.192 | 0.215 | 0.293 | 0.237 | 0.222 | 0.208 | 0.184 | 0.153 | 0.201 | 0.217 | 0.202 | 0.192 | 0.165
5 | NCI-H1915 | 0.343 | 0.455 | 0.442 | 0.534 | 0.305 |  | 0.259 | 0.239 | 0.264 | 0.27 | 0.284 | 0.263 | 0.257 | 0.29 | 0.291 | 0.29 | 0.329 | 0.292
6 | NCI-H358 | 0.084 | 0.0964 | 0.0992 | 0.109 | 0.0865 | 0.234 | 0.21 | 0.221 | 0.216 | 0.206 | 0.198 | 0.197 | 0.0907 | 0.153 | 0.129 | 0.123 | 0.128 | 0.123
7 | LK-2 | 0.171 | 0.186 | 0.164 | 0.174 | 0.184 | 0.27 | 0.288 | 0.39 | 0.352 | 0.352 | 0.24 | 0.205 | 0.146 | 0.753 | 0.829 | 0.82 | 0.62 | 0.724
